Laboratory results from US20070098770A1, “Cosmetic path using method thereof, and cosmetic path package” (priority 2003, published 2007).

Experiments:
[1] = cited from earlier work
[2] = Stability of vitamin C dissolved in water; format: physicochemical; conditions: eight hours after it is dissolved in water

| Molecule | volume of an absolute alcohol in which 1 g dissolves ([1]; absolute alcohol) [mL] | volume of an alcohol in which 1 g dissolves ([1]; alcohol) [mL] | volume of glycerol in which 1 g dissolves ([1]; glycerol) [mL] | volume of propylene glycol in which 1 g dissolves ([1]; propylene glycol) [mL] | volume of water in which 1 g dissolves ([1]; water) [mL] | portion oxidized into dehydroascorbic acid and deactivated by hydrolysis [2] | solubility in an alcohol ([1]; alcohol (95% in ethanol)) | solubility in water ([1]; water) |
| --- | --- | --- | --- | --- | --- | --- | --- | --- |
| O=C1O[C@H]([C@@H](O)CO)C(O)=C1O [Vitamin C, L-ascorbic acid] | 50 | 30 | 100 | 20 | 3 | at least 10% | – | – |
| tocopherol [vitamin E] | – | – | – | – | – | – | readily soluble | almost insoluble |
